± gives the expanded uncertainty stated by the source.
Legend:
[1] = xn = mol fraction of the nth substance listed; details: 101 kPa, Liquid
[2] = refractive index (Na D-line) (dimensionless); xn = mol fraction of the nth substance listed; details: 101 kPa, Liquid

CC(C)(C)O [2-methylpropan-2-ol] + CCCCCCC
Details | mass density, 303.15 K [kg/m3] | mass density, 308.15 K [kg/m3] | mass density, 313.15 K [kg/m3] | mass density, 318.15 K [kg/m3] | mass density, 323.15 K [kg/m3] | refractive index, 303.15 K | refractive index, 308.15 K | refractive index, 313.15 K | refractive index, 318.15 K | refractive index, 323.15 K
[1], x1 = 0.1006 | 679.898 ± 0.65 | 675.406 ± 0.66 | 670.867 ± 0.66 | 666.278 ± 0.67 | 661.645 ± 0.68 | – | – | – | – | –
[1], x1 = 0.1502 | 682.8 ± 0.64 | 678.262 ± 0.65 | 673.669 ± 0.66 | 669.017 ± 0.66 | 664.315 ± 0.67 | – | – | – | – | –
[1], x1 = 0.2 | 685.899 ± 0.64 | 681.327 ± 0.64 | 676.692 ± 0.65 | 671.995 ± 0.66 | 667.235 ± 0.67 | – | – | – | – | –
[1], x1 = 0.3 | 692.705 ± 0.63 | 688.078 ± 0.63 | 683.382 ± 0.64 | 678.612 ± 0.65 | 673.771 ± 0.65 | – | – | – | – | –
[1], x1 = 0.4 | 700.298 ± 0.61 | 695.628 ± 0.62 | 690.882 ± 0.63 | 686.056 ± 0.63 | 681.144 ± 0.64 | – | – | – | – | –
[1], x1 = 0.4998 | 708.705 ± 0.6 | 703.995 ± 0.61 | 699.207 ± 0.61 | 694.329 ± 0.62 | 689.366 ± 0.63 | – | – | – | – | –
[1], x1 = 0.6 | 718.327 ± 0.58 | 713.568 ± 0.59 | 708.726 ± 0.6 | 703.799 ± 0.6 | 698.776 ± 0.61 | – | – | – | – | –
[1], x1 = 0.7 | 729.448 ± 0.56 | 724.603 ± 0.57 | 719.685 ± 0.58 | 714.683 ± 0.59 | 709.587 ± 0.59 | – | – | – | – | –
[1], x1 = 0.7998 | 742.308 ± 0.54 | 737.338 ± 0.55 | 732.305 ± 0.56 | 727.201 ± 0.57 | 721.991 ± 0.57 | – | – | – | – | –
[1], x1 = 0.8479 | 749.34 ± 0.53 | 744.297 ± 0.54 | 739.195 ± 0.55 | 734.015 ± 0.56 | 728.76 ± 0.56 | – | – | – | – | –
[1], x1 = 0.8998 | 757.564 ± 0.52 | 752.448 ± 0.53 | 747.271 ± 0.54 | 742.022 ± 0.54 | 736.693 ± 0.55 | – | – | – | – | –
[1], x1 = 0.9499 | 766.164 ± 0.51 | 760.994 ± 0.51 | 755.749 ± 0.52 | 750.424 ± 0.53 | 745.02 ± 0.54 | – | – | – | – | –
[1], x1 = 1 | 775.412 ± 0.49 | 770.193 ± 0.5 | 764.884 ± 0.51 | 759.488 ± 0.52 | 754.015 ± 0.52 | – | – | – | – | –
[2], x1 = 0.1006 | – | – | – | – | – | 1.3814 ± 0.00063 | 1.37865 ± 0.00063 | 1.37591 ± 0.00063 | 1.37312 ± 0.00063 | 1.37031 ± 0.00063
[2], x1 = 0.1502 | – | – | – | – | – | 1.38092 ± 0.00063 | 1.37816 ± 0.00063 | 1.37539 ± 0.00063 | 1.37258 ± 0.00063 | 1.36973 ± 0.00063
[2], x1 = 0.2 | – | – | – | – | – | 1.38051 ± 0.00063 | 1.37775 ± 0.00063 | 1.37496 ± 0.00063 | 1.37213 ± 0.00063 | 1.36928 ± 0.00063
[2], x1 = 0.3 | – | – | – | – | – | 1.37984 ± 0.00063 | 1.37711 ± 0.00063 | 1.37431 ± 0.00063 | 1.37149 ± 0.00063 | 1.36865 ± 0.00063
[2], x1 = 0.4 | – | – | – | – | – | 1.37936 ± 0.00063 | 1.37667 ± 0.00063 | 1.37387 ± 0.00063 | 1.37108 ± 0.00063 | 1.36828 ± 0.00063
[2], x1 = 0.4998 | – | – | – | – | – | 1.37907 ± 0.00063 | 1.37641 ± 0.00063 | 1.3736 ± 0.00063 | 1.37085 ± 0.00063 | 1.36807 ± 0.00063
[2], x1 = 0.6 | – | – | – | – | – | 1.37899 ± 0.00063 | 1.37633 ± 0.00063 | 1.3735 ± 0.00063 | 1.37079 ± 0.00063 | 1.36801 ± 0.00063
[2], x1 = 0.7 | – | – | – | – | – | 1.37917 ± 0.00062 | 1.37649 ± 0.00062 | 1.37364 ± 0.00062 | 1.37094 ± 0.00062 | 1.36814 ± 0.00062
[2], x1 = 0.7998 | – | – | – | – | – | 1.37969 ± 0.00062 | 1.37697 ± 0.00062 | 1.37411 ± 0.00062 | 1.37139 ± 0.00062 | 1.36855 ± 0.00062
[2], x1 = 0.8479 | – | – | – | – | – | 1.38009 ± 0.00062 | 1.37735 ± 0.00062 | 1.37449 ± 0.00062 | 1.37175 ± 0.00062 | 1.36889 ± 0.00062
[2], x1 = 0.8998 | – | – | – | – | – | 1.38066 ± 0.00062 | 1.37791 ± 0.00062 | 1.37505 ± 0.00062 | 1.37229 ± 0.00062 | 1.36942 ± 0.00062
[2], x1 = 0.9499 | – | – | – | – | – | 1.38136 ± 0.00062 | 1.3786 ± 0.00062 | 1.37577 ± 0.00062 | 1.37297 ± 0.00062 | 1.37009 ± 0.00062
[2], x1 = 1 | – | – | – | – | – | 1.38222 ± 0.00062 | 1.37947 ± 0.00062 | 1.37667 ± 0.00062 | 1.37384 ± 0.00062 | 1.37097 ± 0.00062
